Data on twelve compounds can be found in patent publication US20120328565A1, “ANTIVIRAL COMPOUNDS” (priority 2011, published 2012).

The subject of this assay is HCV GT-1b Con1 subgenomic replicon. The assay is described as follows: HCV GT1b replicon luciferase reporter assay (2209-23 cells). It is filed as cell-based. The following applies: Hepatitis C virus, 2209-23 cell line (Huh-7 with GT-1b Con1 subgenomic replicon), Renilla luciferase read 72 hours after compound addition. The source says:
Determination of compounds HCV GT1b inhibitory replicon activity using the replicon luciferase reporter assay
The 2209-23 cell line was developed at Roche by stable transfection of the hepatoma cell line Huh-7 with a GT-1b Con1 subgenomic bicistronic replicon as previously described. Subgenomic replicon cell line was established in cured Huh7 cells, obtained from R. Bartenschlager (J. Virol. 2003 March; 77 (5):3007-19) The GT-1a H77 subgenomic replicon vector pRLuc H771b 75 S/I, was created by replacing the non structural region of the GT-1b Con1 subgenomic replicon by the one of the H77 strain, except for the first 75 amino acids of the NS3 protein that are from GT-1b Con1 strain. (J. Virol. 2001 77:5352-59) The GT-1a pRLuc H771b 75 S/I subgenomic replicon cell line was established in cured Huh7 cells, obtained from R. Bartenschlager. (J. Virol. 2003 March; 77 (5):3007-19)
All the subgenomic replicon cell lines were cultured in Dulbecco's Modified Eagle Medium (DMEM-Glutamax™-I; Invitrogen Cat #10569-010). The medium was supplemented with 10% Fetal Bovine Serum (Invitrogen Cat #10082-147), 1% penicillin/streptomycin (Mediatech Cat #30-002-CI) and 500 μg/ml of G418 (Mediatech Cat #30-234-CI). Cells were maintained at 37° C. in a humidified 5% CO2 atmosphere.
2209-23 cells were plated at a cell density of 5000 cells per well in 96 well plates (Becton Dickinson, Cat #35 3296). Cells were plated in 90 μl of Dulbecco's Modified Eagle Medium (DMEM-Glutamax™-I), (Invitrogen Cat #10569-010) medium was supplemented with 5% Fetal Bovine Serum (Invitrogen Cat #10082-147), 1% penicillin/streptomycin (Mediatech Cat #30-002-CI). The pRluc H771b 75 S/I cells were plated in 96-well plate at 3000 cells/well in DMEM-Glutamax™-I containing 5% FBS and 1% penicillin/streptomycin in 90 μl final volume. Cells were allowed to equilibrate for 24 hours at 37° C. and 5% CO2 at which time compounds were added. Compounds (or medium as a control) were added 24 hours post-plating in 3 fold dilutions at a final DMSO concentration of 1% in 10 ul volume. Renilla luciferase reporter signal was read 72 hours after addition of compounds using the Renilla Luciferase Assay System (Promega, cat #E2820). EC50 values were defined as the compound concentration at which a 50% reduction in the levels of renilla luciferase reporter was observed as compared to control samples in the absence of compound and was determined by non-linear fitting of compound dose-response data. The EC50 was approximated if maximum percentage inhibition was less than 90% and more than 70%.
In the case of `COC(=O)N[C@H](C(=O)N1CCC[C@H]1C(=O)NC(=O)Nc1ccc(-c2ccc(-c3cnc([C@@H]4CCCN4C(=O)[C@@H](NC(=O)OC)C(C)C)[nH]3)cc2)cc1)C(C)C` [Compound I-1, ((S)-1-{(S)-2-[3-(4′-{2-[(S)-1-((S)-2-Methoxycarbonylamino-3-methyl-butyryl)-pyrrolidin-2-yl]-3H-imidazol-4-yl}-biphenyl-4-yl)-ureidocarbonyl]-pyrrolidine-1-carbonyl}-2-methyl-propyl)-carbamic acid methyl ester], the IC50 came out at 0.463 nM.

In turn, `COC(=O)N[C@H](C(=O)N1CCC[C@H]1C(=O)NC(=O)Nc1cccc(-c2ccc(-c3cnc([C@@H]4CCCN4C(=O)[C@@H](NC(=O)OC)C(C)C)[nH]3)cc2)c1)C(C)C` [Compound I-2, ((S)-1-{(S)-2-[3-(4′-{2-[(S)-1-((S)-2-Methoxycarbonylamino-3-methyl-butyryl)-pyrrolidin-2-yl]-3H-imidazol-4-yl}-biphenyl-3-yl)-ureidocarbonyl]-pyrrolidine-1-carbonyl}-2-methyl-propyl)-carbamic acid methyl ester] had an IC50 of 8.42 nM. With `COC(=O)N[C@H](C(=O)N1CCC[C@H]1c1ncc(-c2ccc(-c3ccc(NC(=O)NC(=O)[C@@H]4CCCN4C(=O)[C@H](NC(=O)OC)c4ccccc4)cc3)cc2)[nH]1)C(C)C` [Compound I-3, ((S)-1-{(S)-2-[5-(4′-{3-[(S)-1-((R)-2-Methoxycarbonylamino-2-phenyl-acetyl)-pyrrolidine-2-carbonyl]-ureido}-biphenyl-4-yl)-1H-imidazol-2-yl]-pyrrolidine-1-carbonyl}-2-methyl-propyl)-carbamic acid methyl ester], the IC50 was 0.009 nM. `COC(=O)N[C@H](C(=O)N1CCC[C@H]1c1ncc(-c2ccc(-c3ccc(NC(=O)NC(=O)[C@@H]4CCCN4C(=O)[C@@H](c4ccccc4)N(C)C)cc3)cc2)[nH]1)C(C)C` [Compound I-4, ((S)-1-{(S)-2-[5-(4′-{3-[(S)-1-((R)-2-Dimethylamino-2-phenyl-acetyl)-pyrrolidine-2-carbonyl]-ureido}-biphenyl-4-yl)-1H-imidazol-2-yl]-pyrrolidine-1-carbonyl}-2-methyl-propyl)-carbamic acid methyl ester] showed an IC50 of 0.007 nM. Compound `COC(=O)N[C@H](C(=O)N1CCC[C@H]1C(=O)NC(=O)NCc1ccc(-c2ccc(-c3cnc([C@@H]4CCCN4C(=O)[C@@H](NC(=O)OC)C(C)C)[nH]3)cc2)cc1)C(C)C` [Compound I-5, ((S)-1-{(S)-2-[5-(4′-{3-[(S)-1-((S)-2-Methoxycarbonylamino-3-methyl-butyryl)-pyrrolidine-2-carbonyl]-ureidomethyl}-biphenyl-4-yl)-1H-imidazol-2-yl]-pyrrolidine-1-carbonyl}-2-methyl-propyl)-carbamic acid methyl ester] yielded an IC50 of 1.98 nM.

For the compound `COC(=O)N[C@H](C(=O)N1CCC[C@H]1c1ncc(-c2ccc(-c3ccc(CNC(=O)NC(=O)[C@@H]4CCCN4C(=O)[C@H](NC(=O)OC)c4ccccc4)cc3)cc2)[nH]1)C(C)C` [Compound I-6, ((S)-1-{(S)-2-[5-(4′-{3-[(S)-1-((R)-2-Methoxycarbonylamino-2-phenyl-acetyl)-pyrrolidine-2-carbonyl]-ureidomethyl}-biphenyl-4-yl)-1H-imidazol-2-yl]-pyrrolidine-1-carbonyl}-2-methyl-propyl)-carbamic acid methyl ester], the IC50 was 6.74 nM. The compound `COC(=O)N[C@H]1CCC(=O)N2CCC[C@@H](c3ncc(-c4ccc(-c5ccc(NC(=O)NC(=O)[C@@H]6CCCN6C(=O)[C@H](NC(=O)OC)c6ccccc6)cc5)cc4)[nH]3)N2C1=O` [Compound I-7, {(4S,7S)-4-[5-(4′-{3-[(S)-1-((R)-2-Methoxycarbonylamino-2-phenyl-acetyl)-pyrrolidine-2-carbonyl]-ureido}-biphenyl-4-yl)-1H-imidazol-2-yl]-6,10-dioxo-octahydro-pyridazino[1,2-a][1,2]diazepin-7-yl}-carbamic acid methyl ester] displayed an IC50 of 0.427 nM. `COC(=O)N[C@H](C(=O)N1CCC[C@H]1c1ncc(-c2ccc(-c3nc4ccc(NC(=O)NC(=O)[C@@H]5CCCN5C(=O)OC(C)(C)C)cc4s3)cc2)[nH]1)C(C)C` [Compound I-8, (S)-2-{3-[2-(4-{2-[(S)-1-((S)-2-Methoxycarbonylamino-3-methyl-butyryl)-pyrrolidin-2-yl]-3H-imidazol-4-yl}-phenyl)-benzothiazol-6-yl]-ureidocarbonyl}-pyrrolidine-1-carboxylic acid tert-butyl ester]: the IC50 is 7.75 nM. In the case of `COC(=O)N[C@H](C(=O)N1CCC[C@H]1C(=O)NC(=O)Nc1ccc2nc(-c3ccc(-c4cnc([C@@H]5CCCN5C(=O)[C@@H](NC(=O)OC)C(C)C)[nH]4)cc3)sc2c1)C(C)C` [Compound I-9, [(S)-1-((S)-2-{5-[4-(6-{3-[(S)-1-((S)-2-Methoxycarbonylamino-3-methyl-butyryl)-pyrrolidine-2-carbonyl]-ureido}-benzothiazol-2-yl)-phenyl]-1H-imidazol-2-yl}-pyrrolidine-1-carbonyl)-2-methyl-propyl]-carbamic acid methyl ester], the IC50 was determined as 0.344 nM.

Compound `COC(=O)N[C@H](C(=O)N1CCC[C@H]1c1ncc(-c2ccc(-c3ccc(NC(=O)NC(=O)[C@@H]4CCCN4C(=O)[C@H](NC(=O)OC)c4ccccc4)cn3)cc2)[nH]1)C(C)C` [Compound I-10, [(S)-1-((S)-2-{5-[4-(5-{3-[(S)-1-((R)-2-Methoxycarbonylamino-2-phenyl-acetyl)-pyrrolidine-2-carbonyl]-ureido}-pyridin-2-yl)-phenyl]-1H-imidazol-2-yl}-pyrrolidine-1-carbonyl)-2-methyl-propyl]-carbamic acid methyl ester] registered an IC50 of 0.041 nM. `COC(=O)N[C@H](C(=O)N1CCC[C@H]1c1ncc(-c2ccc(-c3nc4ccc(NC(=O)NC(=O)[C@@H]5CCCN5C(=O)[C@@H](c5ccccc5)N(C)C)cc4s3)cc2)[nH]1)C(C)C` [Compound I-11, [(S)-1-((S)-2-{5-[4-(6-{3-[(S)-1-((R)-2-Dimethylamino-2-phenyl-acetyl)-pyrrolidine-2-carbonyl]-ureido}-benzothiazol-2-yl)-phenyl]-1H-imidazol-2-yl}-pyrrolidine-1-carbonyl)-2-methyl-propyl]-carbamic acid methyl ester]: the IC50 amounted to 0.029 nM. `COC(=O)N[C@H](C(=O)N1CCC[C@H]1C(=O)NC(=O)Nc1ccc(-c2ccc(-c3cnc([C@@H]4CCCN4C(=O)[C@@H](NC(=O)OC)C(C)C)[nH]3)cc2)cc1F)C(C)C` [Compound I-12, ((S)-1-{(S)-2-[5-(3′-Fluoro-4′-{3-[(S)-1-((S)-2-methoxycarbonylamino-3-methyl-butyryl)-pyrrolidine-2-carbonyl]-ureido}-biphenyl-4-yl)-1H-imidazol-2-yl]-pyrrolidine-1-carbonyl}-2-methyl-propyl)-carbamic acid methyl ester]: inhibition was half-maximal at 0.064 nM (IC50).
